According to patent publication US11344559B2, “PI3KGAMMA inhibitors” (The Regents of the University of California, priority 2019, dated 2022):

Tests used:
Type in all cases: cell-based
IL12b protein levels [1] = assay: IL12b protein expression (ELISA) after M1 polarization with bulk synthesized compounds; conditions: 10 micromolar compound 1 h before IFNgamma+LPS (M1) polarization, supernatants 24 h post-stimulation, read-out: IL12B protein expression (Percent of Control)
Procedure: Compounds with the highest activity levels in the primary, secondary and tertiary screening assays were resynthesized in bulk and then tested for their effects on protein expression of inflammatory cytokines after M1 (IFNg+LPS) macrophage polarization. Bone marrow derived macrophages were plated into 12 well plates at d7 post-harvest and incubated for 1 h with 10 micromolar compound prior to polarization in the presence of bulk synthesized compounds 1-14. Cells were then polarized by the addition of either IFNgamma+LPS (M1) and cell supernatants were harvested 24 h post-stimulation. Methods of inducing macrophage polarization are known in the art, e.g., as described in Mosser et al., Curr. Protoc. Immunol. 2008 November; Chapter 14:Unit 14.2. doi: 10.1002/0471142735.im1402s83. After 24 h, cell supernatants were removed and screened for IL12b protein levels using an enzyme linked immunosorbent assay (ELISA). Increases in IL12b protein levels induced by compounds were recorded as percent increase in IL12b protein expression compared to IL12b expression in the absence of compounds.

IL12b protein levels [2] = assay: Secondary screening: IL12b protein ELISA in M1 polarized bone marrow derived macrophages; conditions: Z score of IL12b protein (ELISA); 1 μM compound, 24 h, IFNg+LPS (M1) polarized bone marrow derived macrophages
Procedure: (§1) Primary screening was performed on 507 compounds identified by the above-described computational screening. Bone marrow derived macrophages were plated into 96 well plates at d7 post-harvest and incubated with 1 μM compound and polarization reagents for 24 h. Primary screening was performed on cells polarized with interferon gamma (IFNg)+Lipopolysaccharide (LPS) (M1 polarization). Methods of inducing macrophage polarization are known in the art, e.g., as described in Mosser et al., Curr. Protoc. Immunol. 2008 November; Chapter 14:Unit 14.2. doi: 10.1002/0471142735.im1402s83. After 24 h, cell supernatants were removed and screened for IL12b and CCL2 protein levels using an enzyme linked immunosorbent assay (ELISA). Additionally, viability of polarized macrophages incubated with compounds was measured using an MTT assay, a colorimetric assay that measures cell metabolic activity by quantifying NAD(P)H-dependent cellular oxidoreductase reduction of the tetrazolium dye MTT 3-(4,5-dimethylthiazol-2-yl)-2,5-diphenyltetrazolium bromide to its insoluble purple colored formazan. Compounds that increased IL12b protein levels or decreased CCL2 protein levels and reduced viability less than 10% were selected for secondary screening. Secondary screening was performed as described for primary screening with a subset of 141 of the original compounds.

IL12b protein levels [3] = assay: Primary screening: IL12b protein ELISA in M1 polarized bone marrow derived macrophages; conditions: Z score of IL12b protein (ELISA); 1 μM compound, 24 h, IFNg+LPS (M1) polarized bone marrow derived macrophages
Procedure: as §1

CCL2 protein levels [4] = assay: Secondary screening: CCL2 protein ELISA in M1 polarized bone marrow derived macrophages; conditions: Z score of CCL2 protein (ELISA); 1 μM compound, 24 h, IFNg+LPS (M1) polarized bone marrow derived macrophages
Procedure: as §1

TGF-beta expression = assay: RNA screening: TGF-beta expression in M2 (IL-4) polarized macrophages, quantitative RT-PCR; set-up: key: −: significant decrease in mRNA vs control (mRNA levels above 50% of control); −−: significant decrease in mRNA vs control (mRNA levels below 50% of control); +: significant increase in mRNA vs control; =: no significant change vs control; conditions: mRNA vs control; 1 μM compound 1 h before IL-4 (M2) polarization, mRNA harvested 6 h post-stimulation
Procedure: (§2) Compounds with the highest activity levels in the primary and secondary screening assays were tested for their effects on transcription of inflammatory cytokines after M1 (IFNg+LPS) and M2 (IL-4) macrophage polarization. Bone marrow derived macrophages were plated into 12 well plates at d7 post-harvest and incubated for 1 h with 1 μM compound prior to polarization. Cell were then polarized by the addition of either IFNgamma+LPS (M1) or IL-4 (M2) and mRNA was harvested 6 h post-stimulation. Quantitative RT-PCR was used to determine the levels of IL-1beta expression in M1 polarized macrophages and of Arginase-1 and TGF-beta expression in M2 polarized macrophages. Compounds were selected from RNA screening that increased IL-1beta expression or decreased Arginase-1 or TGF-beta expression.

CCL2 protein levels [5] = assay: Primary screening: CCL2 protein ELISA in M1 polarized bone marrow derived macrophages; conditions: Z score of CCL2 protein (ELISA); 1 μM compound, 24 h, IFNg+LPS (M1) polarized bone marrow derived macrophages
Procedure: as §1

IL-1beta expression = assay: RNA screening: IL-1beta expression in M1 (IFNg+LPS) polarized macrophages, quantitative RT-PCR; set-up: key: −: significant decrease in mRNA vs control (mRNA levels above 50% of control); −−: significant decrease in mRNA vs control (mRNA levels below 50% of control); +: significant increase in mRNA vs control; =: no significant change vs control; conditions: mRNA vs control; 1 μM compound 1 h before IFNgamma+LPS (M1) polarization, mRNA harvested 6 h post-stimulation
Procedure: as §2

Arginase-1 expression = assay: RNA screening: Arginase-1 expression in M2 (IL-4) polarized macrophages, quantitative RT-PCR; conditions: Macrophage; mRNA vs control; 1 μM compound 1 h before IL-4 (M2) polarization, mRNA harvested 6 h post-stimulation; read-out: RNA Screening IL-4 Arg 1
Procedure: as §2

O=C(O)c1nc[nH]c1C(=O)N1CCN(c2ccccn2)CC1 [Compound 9, 5-[(4-pyridin-2-ylpiperazin-1-yl)carbonyl]-1H-imidazole-4-carboxylic acid]
activity at 10 µM (IL12b protein levels [1]): 131% | Secondary Screen ZIL12b (IL12b protein levels [2]): 0.92 | Primary Screen ZIL12b (IL12b protein levels [3]): 0.54 | Secondary Screen ZCCL2 (CCL2 protein levels [4]): −1.53 | RNA Screening IL-4 Tgfb (TGF-beta expression): + | Primary Screen ZCCL2 (CCL2 protein levels [5]): −5.07 | RNA Screening Ifng + LPS Il1b (IL-1beta expression): + | mrna remaining at 1 µM (Arginase-1 expression): > 50%
